Measurements as given in ChEMBL document CHEMBL1141075, “4-Oxo-4,7-dihydrothieno[2,3-b]pyridines as non-nucleoside inhibitors of human cytomegalovirus and related herpesvirus polymerases” (J Med Chem, 2005).

Columns and labels:
[1] = biological target: T1, DNA polymerase catalytic subunit (Human cytomegalovirus (strain AD169) (HHV-5) (Human herpesvirus 5), UniProt P08546); assay: Inhibition of human cytomegalovirus DNA polymerase (95 uL) activity in a solution containing […] HEPES (pH 7.5), incubation for 12 minutes at 26 degrees C; set-up: species or system Human betaherpesvirus 5
T1 sequence (P08546 whole entry): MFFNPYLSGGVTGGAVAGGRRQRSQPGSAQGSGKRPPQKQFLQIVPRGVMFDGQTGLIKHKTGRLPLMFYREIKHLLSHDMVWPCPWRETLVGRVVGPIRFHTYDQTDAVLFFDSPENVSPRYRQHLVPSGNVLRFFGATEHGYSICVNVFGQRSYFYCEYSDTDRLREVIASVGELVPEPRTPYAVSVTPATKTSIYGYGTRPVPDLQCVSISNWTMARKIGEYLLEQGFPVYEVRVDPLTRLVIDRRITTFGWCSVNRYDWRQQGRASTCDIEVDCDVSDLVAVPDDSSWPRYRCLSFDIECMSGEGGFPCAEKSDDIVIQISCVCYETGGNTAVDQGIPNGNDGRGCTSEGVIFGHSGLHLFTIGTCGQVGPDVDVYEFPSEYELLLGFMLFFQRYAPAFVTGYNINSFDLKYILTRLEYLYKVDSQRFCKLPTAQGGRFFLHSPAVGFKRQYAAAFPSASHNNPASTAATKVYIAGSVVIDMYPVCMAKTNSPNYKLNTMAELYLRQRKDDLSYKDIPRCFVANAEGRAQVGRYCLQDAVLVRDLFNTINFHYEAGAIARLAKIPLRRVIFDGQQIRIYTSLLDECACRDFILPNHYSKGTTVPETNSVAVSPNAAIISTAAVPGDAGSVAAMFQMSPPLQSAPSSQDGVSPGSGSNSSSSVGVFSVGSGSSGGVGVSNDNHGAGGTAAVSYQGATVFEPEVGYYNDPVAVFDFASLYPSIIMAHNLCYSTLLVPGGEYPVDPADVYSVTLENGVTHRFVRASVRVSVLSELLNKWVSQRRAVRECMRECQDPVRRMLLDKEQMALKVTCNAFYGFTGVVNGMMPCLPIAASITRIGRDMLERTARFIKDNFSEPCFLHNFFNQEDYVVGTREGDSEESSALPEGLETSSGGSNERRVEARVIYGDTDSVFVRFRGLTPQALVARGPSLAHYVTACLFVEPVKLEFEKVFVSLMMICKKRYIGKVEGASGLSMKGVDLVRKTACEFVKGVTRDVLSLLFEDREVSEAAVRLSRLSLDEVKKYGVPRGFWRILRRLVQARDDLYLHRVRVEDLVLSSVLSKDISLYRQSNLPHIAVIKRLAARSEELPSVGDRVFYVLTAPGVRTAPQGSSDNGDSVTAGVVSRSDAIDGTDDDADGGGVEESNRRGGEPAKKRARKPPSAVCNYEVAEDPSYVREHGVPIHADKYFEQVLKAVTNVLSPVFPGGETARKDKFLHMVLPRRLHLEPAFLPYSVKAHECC

HFF = assay: Antiviral activity against human cytomegalovirus (Davis strain) grown on human foreskin fibroblast cells determined by reduction in plaque formation upon incubation at 37 degrees C with the compound dissolved in DMSO; assay type: functional, cell-based
[2] = biological target: T2, DNA polymerase delta catalytic subunit (Homo sapiens, UniProt P28340); assay: Inhibition of human delta DNA polymerase (95 uL) activity in a solution containg […] HEPES (pH 7.5) upon incubation for 12 minutes at 26 degrees C with the compound dissolved in DMSO
T2 sequence (P28340 whole entry): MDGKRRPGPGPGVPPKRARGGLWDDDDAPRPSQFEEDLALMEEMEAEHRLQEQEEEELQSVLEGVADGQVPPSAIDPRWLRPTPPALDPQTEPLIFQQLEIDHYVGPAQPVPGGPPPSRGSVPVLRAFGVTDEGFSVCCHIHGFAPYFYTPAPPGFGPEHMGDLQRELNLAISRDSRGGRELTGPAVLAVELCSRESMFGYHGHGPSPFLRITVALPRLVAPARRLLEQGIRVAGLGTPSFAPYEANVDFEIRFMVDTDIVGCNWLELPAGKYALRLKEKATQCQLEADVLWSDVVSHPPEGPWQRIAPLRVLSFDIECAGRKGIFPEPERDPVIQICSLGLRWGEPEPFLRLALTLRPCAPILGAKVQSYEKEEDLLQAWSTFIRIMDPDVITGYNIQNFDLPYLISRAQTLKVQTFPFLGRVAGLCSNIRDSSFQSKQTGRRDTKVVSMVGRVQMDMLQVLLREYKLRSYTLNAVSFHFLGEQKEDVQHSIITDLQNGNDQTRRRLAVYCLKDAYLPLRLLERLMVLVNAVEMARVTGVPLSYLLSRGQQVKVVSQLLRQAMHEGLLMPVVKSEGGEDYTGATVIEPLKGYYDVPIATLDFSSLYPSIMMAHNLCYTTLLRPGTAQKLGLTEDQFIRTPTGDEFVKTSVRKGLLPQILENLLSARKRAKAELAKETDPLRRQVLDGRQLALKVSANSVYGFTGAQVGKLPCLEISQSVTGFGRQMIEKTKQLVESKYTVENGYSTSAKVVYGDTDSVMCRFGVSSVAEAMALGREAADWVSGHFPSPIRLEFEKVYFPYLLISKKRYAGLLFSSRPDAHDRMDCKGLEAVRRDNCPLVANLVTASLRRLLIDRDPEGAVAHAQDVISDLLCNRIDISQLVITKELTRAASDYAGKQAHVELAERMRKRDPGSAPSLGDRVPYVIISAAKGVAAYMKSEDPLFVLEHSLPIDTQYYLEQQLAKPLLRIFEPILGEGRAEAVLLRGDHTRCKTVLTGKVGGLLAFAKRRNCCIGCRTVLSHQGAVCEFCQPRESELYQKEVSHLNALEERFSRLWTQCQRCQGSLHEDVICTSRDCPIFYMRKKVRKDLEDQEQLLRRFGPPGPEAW

[3] = biological target: T3, DNA polymerase alpha catalytic subunit (Homo sapiens, UniProt P09884); assay: Inhibition of human alpha DNA polymerase (95 uL) activity in a solution containg […] HEPES (pH 7.5) upon incubation for 12 minutes at 26 degrees C with the compound dissolved in DMSO
T3 sequence (P09884 whole entry): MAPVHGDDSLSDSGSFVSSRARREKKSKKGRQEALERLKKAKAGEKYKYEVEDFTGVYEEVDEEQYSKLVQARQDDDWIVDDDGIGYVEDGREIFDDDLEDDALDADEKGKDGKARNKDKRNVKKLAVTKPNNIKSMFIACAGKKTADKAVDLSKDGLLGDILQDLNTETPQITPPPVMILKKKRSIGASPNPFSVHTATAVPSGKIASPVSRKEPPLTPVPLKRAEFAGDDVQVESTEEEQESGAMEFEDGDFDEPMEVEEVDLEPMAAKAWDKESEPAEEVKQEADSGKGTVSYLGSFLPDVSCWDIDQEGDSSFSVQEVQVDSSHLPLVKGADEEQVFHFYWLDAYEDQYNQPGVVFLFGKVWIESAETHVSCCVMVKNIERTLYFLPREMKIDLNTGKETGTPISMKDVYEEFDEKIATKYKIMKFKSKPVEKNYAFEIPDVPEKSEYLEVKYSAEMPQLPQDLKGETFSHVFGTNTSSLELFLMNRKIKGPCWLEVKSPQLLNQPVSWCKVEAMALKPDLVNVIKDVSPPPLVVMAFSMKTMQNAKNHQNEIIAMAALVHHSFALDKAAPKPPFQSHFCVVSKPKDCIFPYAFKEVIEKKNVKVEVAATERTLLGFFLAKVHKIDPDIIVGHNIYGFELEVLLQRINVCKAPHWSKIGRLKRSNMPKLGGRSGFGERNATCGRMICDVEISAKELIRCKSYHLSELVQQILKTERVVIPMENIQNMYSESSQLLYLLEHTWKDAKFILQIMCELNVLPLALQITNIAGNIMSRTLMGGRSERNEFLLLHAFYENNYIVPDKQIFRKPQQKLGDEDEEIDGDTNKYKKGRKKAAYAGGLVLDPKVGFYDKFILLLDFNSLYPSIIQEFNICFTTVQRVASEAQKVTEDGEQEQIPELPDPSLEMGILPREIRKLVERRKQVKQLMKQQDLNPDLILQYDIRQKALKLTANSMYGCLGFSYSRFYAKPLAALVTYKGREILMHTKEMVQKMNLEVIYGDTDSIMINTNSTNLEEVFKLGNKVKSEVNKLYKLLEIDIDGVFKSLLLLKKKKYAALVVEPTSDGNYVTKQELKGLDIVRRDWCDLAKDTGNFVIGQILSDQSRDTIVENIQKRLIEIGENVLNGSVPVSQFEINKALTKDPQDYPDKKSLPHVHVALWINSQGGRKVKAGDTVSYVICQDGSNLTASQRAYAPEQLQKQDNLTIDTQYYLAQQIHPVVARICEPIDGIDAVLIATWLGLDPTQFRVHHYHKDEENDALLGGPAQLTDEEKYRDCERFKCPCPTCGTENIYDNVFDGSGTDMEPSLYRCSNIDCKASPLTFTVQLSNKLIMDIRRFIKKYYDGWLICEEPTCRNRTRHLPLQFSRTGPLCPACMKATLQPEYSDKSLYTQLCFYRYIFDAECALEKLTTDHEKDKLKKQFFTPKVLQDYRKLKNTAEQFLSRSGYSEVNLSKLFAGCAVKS

Structure (SMILES) | IC50 [1] [nM] | IC50 (HFF) [nM] | also measured
Cn1cc(C(=O)NCc2ccc(Cl)cc2)c(=O)c2cc(CCO)sc21 | 4000 | – | –
Cn1cc(C(=O)NCc2ccc(Cl)cc2)c(=O)c2cc(C#CCCO)sc21 | 9500 | – | –
Cn1cc(C(=O)NCc2ccc(Cl)cc2)c(=O)c2cc(C#CCCCO)sc21 | 22000 | – | –
O=C(NCc1ccc(Cl)cc1)c1cnc2sc(CCCO)cc2c1O | – | > 20000 | –
O=C(NCc1ccc(Cl)cc1)c1cn(CCO)c2sc(C#CCO)cc2c1=O | 1100 | 2300 | –
O=C(NCc1ccc(Cl)cc1)c1cn(CCO)c2sc(CCCO)cc2c1=O | 750 | 1800 | –
CCN(CC)CCn1cc(C(=O)NCc2ccc(Cl)cc2)c(=O)c2cc(CCCO)sc21 | – | 900 | –
CCn1cc(C(=O)NCc2ccc(Cl)cc2)c(=O)c2cc(C#CCO)sc21 | – | 1700 | –
CCn1cc(C(=O)NCc2ccc(Cl)cc2)c(=O)c2cc(CCCO)sc21 | – | 2300 | –
Cn1cc(C(=O)NCc2ccc(Cl)cc2)c(=O)c2cc(C#CCO)sc21 | – | 1400 | –
O=C(NCc1ccc(Cl)cc1)c1cnc2sc(C#CCO)cc2c1O | 2700 | > 20000 | –
CC(C)n1cc(C(=O)NCc2ccc(Cl)cc2)c(=O)c2cc(CCCO)sc21 | – | 1300 | –
Cn1cc(C(=O)NCc2ccc(Cl)cc2)c(=O)c2cc(CCCCO)sc21 | 430 | – | –
CC(C)n1cc(C(=O)NCc2ccc(Cl)cc2)c(=O)c2cc(C#CCO)sc21 | – | 2700 | –
CCN(CC)CCn1cc(C(=O)NCc2ccc(Cl)cc2)c(=O)c2cc(C#CCO)sc21 | 1800 | 3800 | –
Cn1cc(C(=O)NCc2ccc(Cl)cc2)c(=O)c2cc(CCCCCO)sc21 | 9700 | – | –
C[C@@]1(CO)[C@H](O)CC[C@@]2(C)[C@H]1CC[C@H]1C[C@@H]3C[C@@]12CC[C@]3(O)CO [APHIDICOLIN] | – | – | IC50 [2]: > 40000 nM
O=C(O)P(=O)(O)O [FOSCARNET] | – | – | IC50 [2]: > 20000 nM; IC50 [3]: > 20000 nM
Cc1cn([C@H]2C[C@H](N=[N+]=[N-])[C@@H](CO[P@](=O)(O)O[P@](=O)(O)OP(=O)(O)O)O2)c(=O)[nH]c1=O [ZIDOVUDINE TRIPHOSPHATE] | – | – | IC50 [3]: 13400 nM
